Entries after “also recorded” stand apart in the source; their conditions may differ. Where a SMILES comes first, the peptide text is derived from it. [ ]: non-standard residue; d: D form.
How the values were obtained:
[1] = test system: human melanoma cell lines; assay: MTS cell viability/cell number assay, melanoma lines; type: cell-based; conditions: for number of viable cells: 4 days
Experimental: Cells were cultured in the presence of BQ788 or vehicle or with no treatment for 4 days. Three wells of each condition were subjected to the MTS assay. The means were calculated and plotted as percent of the vehicle-treated value, +S.E.M. P values were calculated using […] for absolute values. The experiment was repeated 3 times, each yielding similar results.
(§1) Cell culture. Human melanoma cell lines were obtained from the American Tissue Culture Collection (ATCC) and were cultured with Dulbecco's Eagle medium (ATCC), containing 10% fetal calf serum, glutamine (Gibco) and antibiotics (concentration; Pen-Strep mix, Gibco) in a humidified incubator with 5% CO2 at 37° C. BQ788 and BQ123 (Calbiochem) were dissolved in 2% polyoxythylene (60) hydrogenated castor oil (HCO60; Nikko Chemicals). Cells were cultured in 96 well ELISA plates. For the cell viability/cell number assay, the day after plating, inhibitor or vehicle was added ard the cultures incubated for 4 days. The MTS assay was used to quantify cells by measuring OD at […] (Promega).

A375 cells = assay: MTS assay, S6c alone or in combination with BQ788; type: cell-based, human
Experimental: In experiments similar to those illustrated in FIG. 2, S6c was tested for its effects on cultured A375 cells, alone or in combination with BQ788, at various concentrations.
as §1
Thus, the ability of BQ788 to lower melanoma cell number is likely to be through its action on ETRB and not as a side effect on another aspect of melanoma cell physiology.

kidney 293 cells [2] = assay: Morphology of cultured kidney 293 cells treated with antagonist (bright field); type: cell-based, human; conditions: 100 μM, 4 days
Experimental: (§2) Cells were cultured for 4 days with 100 μM BQ788 (FIGS. A, C, and E) or with vehicle (FIGS. B, D, and F). The cell lines were melanoma line SK-MEL 28 (FIGS. A and B), melanoma line SK-MEL 5 (FIGS. C and D), and kidney 293 (FIGS. E and F). […] Pictures were taken with bright field optics at 40×magnification.
as §1
(§3) To test the hypothesis that ETRB function plays a role in melanoma cell growth and differentiation, we cultured 7 human melanoma cell lines and one human kidney cell line with the selective ETRB antagonist, BQ788.

A375 melanoma tumor [3] = assay: Intra-tumor injection, A375 melanoma grafts in nude mice; type: in vivo, nude mice (nu/nu, BALB/c background)
Experimental: Nude mice (nu/nu, BALB/c background) were implanted with grafts of A375 cells subcutaneously on the flank. After the tumors had reached approximately 4 mm in diameter they were injected daily with BQ788 for 9 days. Perpendicular tumor diameters were measured daily to estimate tumor volume. Controls were injected on the same schedule with vehicle. Data from 3 experiments utilizing 10 BQ788-treated mice and 8-vehicle treated mice were pooled. P values were calculated using t test. Similar conclusions come from measuring tumor weights.
For the in vivo experiments we chose the A375 melanoma cell line. Although this line is not the most sensitive to BQ788 treatment in culture, it is known to grow readily in nude mice. First, dissociated cells were injected as a suspension into the flank of nude mice. When tumors developed, one mouse was sacrificed, the tumor removed and cut into pieces of approximately 3 mm in diameter and implanted under the skin of a new series of nude mice. When the tumor reaches 4 mm in diameter (which takes approximately 12 days, but can vary), 25 μl of a solution containing 20, μg/μl of BQ788 dissolved in 2% polyoxythylene (60) hydrogenated castor oil (HCO60) (Ishikawa, et al., Proc. Natl. Acad. Sci. USA, 91:4892-6 (1994)) was injected into the center of the tumor daily for 9 days. Tumors in control mice were injected in the same way with 25 μl of 2% HCO60. Before each injection the tumor dimensions were measured. At the outset, the mean tumor volume was 26 mm^3 in both control and BQ788-treated mice. […] Similar conclusions come from comparison of tumor weights (means of 446 mg versus 93 mg; p<0.005).

kidney 293 cells [4] = assay: MTS cell viability/cell number assay, kidney cells; type: cell-based, human; conditions: high concentrations, 4 days
[5] = test system: human melanoma cell lines; assay: Morphology of cultured melanoma cells treated with antagonist (bright field); type: cell-based
Experimental: as §2, §1, §3

[6] = literature reports; cited from earlier work
A375 melanoma tumor [7] = assay: Histology of tumors from the i.p. experiment (TUNEL, anti-CD31); type: in vivo, nude mice
Experimental: FIGS. 8A-8D show representative sections from 4 tumors from BQ788 injected mice and FIGS. 8E-8G show tumors from vehicle-injected mice. […] The magnification is 20×.
Immunohistochemistry. Tumors were frozen on dry ice, cut on a cryostat into 20 μm sections, and stored at −80° C. Sections were rinsed in calcium and magnesium-free phosphate buffered saline (PBS), fixed in 4% paraformaldehyde for 1 hour at room temperature, blocked with 2% rabbit serum and incubated with primary antibody overnight at 4° C. After washing in PBS sections were incubated with a biotinylated secondary antibody, and staining developed using the Elite ABC kit (Vector Laboratories, CA). The primary antibodies used in this study were monoclonal rat anti-mouse CD31 (platelet endothelial cell adhesion molecule) and rat anti-mouse CD45 (leukocyte common antigen found on all cells of hematopoietic origin, except erythrocytes) (Pharmagen, San Diego, Calif.). A cell death kit was used for TUNEL staining (Boehringer Mannheim).
Several of the tumors from the i.p. injection experiment were taken for histological examination on day 10. Sections were stained with anti-CD31 antibody for angiogenesis, and with the TUNEL method for apoptosis. […] These effects in culture appear mediated by the action of the drug on ETRB itself, as BQ788 is ineffective on A375 cells in the presence of the ETRB agonist S6c. A further indication of the specificity of the action of BQ788 is its very different effect on kidney 293 cells.

A375 melanoma tumor [8] = assay: Systemic (i.p.) administration, A375 melanoma grafts in nude mice; type: in vivo
Experimental: The experiment was similar to that described in FIG. 6, except that the drug and vehicle were injected daily i.p. In FIG. 7A, the data for the 6 BQ788-treated mice were pooled.
We next asked if systemic administration of BQ788 inhibits tumor growth. In these experiments, tumor induction and the starting point of the treatments were as for the intra-tumor approach. At that point, mice were injected i.p. with 100 μl of BQ788 solution (0.6 mg BQ788 in 30% water and 70% saline, at a final HCO60 concentration of 0.6%) once or twice a day for a period of 9 days. Control mice received the same injections but without BQ788. In the first experiment, mice were injected once a day, and in the second experiment the mice were injected in the morning and then again in the early evening. […] However, there was some heterogeneity in the response of the mice to BQ788.

[9] = A375, SK-MEL 28 and RPMI 7951 cells

CC(C)C[C@@H]1NC(=O)[C@@H](C(C)C)NC(=O)[C@@H]2CCCN2C(=O)[C@@H](CC(=O)O)NC(=O)[C@@H](Cc2c[nH]c3ccccc23)NC1=O [BQ123] (cyclo(L[dW][dD]P[dV]))
cell number ([1]; A375 and SK-MEL 28 melanoma lines): slightly increases cell number
number of viable cells ([1]; any of the cell lines, even at high concentrations): does not reduce the number of viable cells; also recorded: did not inhibit melanoma cell growth in culture

sarafotoxin 6c [S6c]
A375 cell number (A375 cells; S6c alone, 0.1 to 1 μM): stimulates cell growth; also recorded: increases A375 cell number
block of the effects of BQ788 on cell number (A375 cells; S6c in combination with BQ788, A375 cells): can block the inhibitory effects of the ETRB antagonist; also recorded: can completely block the effects of BQ788

CCCC[C@@H](NC(=O)[C@@H](Cc1cn(C(=O)OC)c2ccccc12)NC(=O)[C@H](CC(C)(C)C)NC(=O)N1[C@H](C)CCC[C@@H]1C)C(=O)O [BQ788, N-cis-2,6-dimethylpiperidinocarbonyl-L-γ-methylleucyl-D-1-methoxycarbonyltrptophanyl-D-norleucine]
morphological changes (kidney 293 cells [2]): does not result in any of these morphological changes
growth rate (final size minus initial size) compared to controls (A375 melanoma tumor [3]; 9 days, intra-tumor injection): 6 times slower
mean tumor volume (A375 melanoma tumor [3]; after 9 days of daily intra-tumor injection, control 376 mm^3, 26 mm^3 at the outset): 84 mm^3
tumor growth (A375 melanoma tumor [3]; intra-tumor injection daily for 9 days): inhibits melanoma tumor growth
tumor weight (mean) (A375 melanoma tumor [3]; intra-tumor injection, control 446 mg, p<0.005): 93 mg
number of viable cells (kidney 293 cells [4]): not kidney cells; also recorded: is not reduced
morphology [5, 9]: vacuoles in their cytoplasm
morphology ([5]; SK-MEL 3 cells): increased surface area (dendritic morphology)
phenotype / dendricity ([5]; SK-MEL 5 cells, 100 μM, 4 days): dendritic phenotype; also recorded: increased dendricity
morphology ([5]; SK-MEL 24 and SK-MEL 31 cells): increased pigmentation
morphology ([5]; SK-MEL 28 and SK-MEL 5, 100 μM, 4 days (FIG. 1 legend)): different shape and accumulation of black pigment
morphological changes ([5]; SK-MEL 28 cells, 100 μM, 4 days): develop large cytoplasmic vacuoles and enhanced pigmentation
surface area ([5]; all the melanoma lines): increased surface area
pigmentation ([5]; most melanoma lines (except for SK-MEL 3)): major increases in pigmentation
effect of BQ788 on cells in the presence of S6c (A375 cells; A375 cells, ETRB agonist S6c present): ineffective
tolerability [6]: can be well tolerated
viability [1, 9]: almost complete loss of viability
sensitivity among the cell lines ([1]; RPMI 7951 cells): highest degree of sensitivity
viability ([1]; SK-MEL 3 cells): less affected than the other lines
viability ([1]; SK-MEL 24 and SK-MEL 31 cells): more affected
number of viable cells ([1]; all 7 melanoma lines, 100 μM): reduces the number of viable cells; also recorded: very significant loss in the number of viable cells
TUNEL labeling (apoptosis) (A375 melanoma tumor [7]; day 10): TUNEL-positive cells are comparatively greater
angiogenesis (anti-CD31 staining) (A375 melanoma tumor [7]; day 10 (data not shown)): no evidence that BQ788 blocks angiogenesis
TUNEL labeling (apoptosis) (A375 melanoma tumor [7]; day 10, listed as BQ-788): enhanced TUNEL labeling
tumor growth (A375 melanoma tumor [8]; i.p. once or twice a day for 9 days, pooled mice): inhibits melanoma tumor growth; also recorded: effective inhibition of tumor growth
tumor growth, first subgroup of mice (A375 melanoma tumor [8]; i.p., after 6 days, one set of mice): slowed tumor growth
tumor growth, second subgroup of mice (A375 melanoma tumor [8]; i.p., after 6 days, other set of mice): caused the tumors to regress; also recorded: the tumors shrank and displayed complete growth arrest
tumor size versus day 1 (A375 melanoma tumor [8]; i.p., first 6 days): did not differ significantly from their size at day 1
